Numbers after ± are expanded uncertainties.
Assay: mn = molality of the nth substance listed, in mol/kg
Conditions: 84.5 kPa, Liquid; for speed of sound: Frequency=3 MHz, Sing-around technique in a fixed-path interferometer; for mass density: Vibrating tube method

CCO [ethanol] + O
Conditions | mass density, 288.15 K [kg/m3] | mass density, 293.15 K [kg/m3] | mass density, 298.15 K [kg/m3] | mass density, 303.15 K [kg/m3] | mass density, 308.15 K [kg/m3] | speed of sound, 288.15 K [m/s] | speed of sound, 293.15 K [m/s] | speed of sound, 298.15 K [m/s] | speed of sound, 303.15 K [m/s] | speed of sound, 308.15 K [m/s]
m1 = 0.02159 | 998.9 ± 0.11 | 998.003 ± 0.11 | 996.845 ± 0.11 | 995.446 ± 0.11 | 993.829 ± 0.11 | 1467.4 ± 1.2 | 1483.4 ± 1.2 | 1497.5 ± 1.2 | 1509.8 ± 1.2 | 1520.4 ± 1.2
m1 = 0.04347 | 998.707 ± 0.11 | 997.81 ± 0.11 | 996.654 ± 0.11 | 995.257 ± 0.11 | 993.639 ± 0.11 | 1468.2 ± 1.2 | 1484.2 ± 1.2 | 1498.2 ± 1.2 | 1510.5 ± 1.2 | 1521 ± 1.2
m1 = 0.06495 | 998.526 ± 0.11 | 997.632 ± 0.11 | 996.474 ± 0.11 | 995.076 ± 0.11 | 993.46 ± 0.11 | 1469.1 ± 1.2 | 1485 ± 1.2 | 1498.9 ± 1.2 | 1511.1 ± 1.2 | 1521.6 ± 1.2
m1 = 0.08646 | 998.318 ± 0.11 | 997.424 ± 0.11 | 996.265 ± 0.11 | 994.87 ± 0.11 | 993.243 ± 0.11 | 1470 ± 1.2 | 1485.8 ± 1.2 | 1499.7 ± 1.2 | 1511.7 ± 1.2 | 1522.2 ± 1.2
m1 = 0.1087 | 998.132 ± 0.11 | 997.24 ± 0.11 | 996.081 ± 0.11 | 994.683 ± 0.11 | 993.05 ± 0.11 | 1470.8 ± 1.2 | 1486.5 ± 1.2 | 1500.4 ± 1.2 | 1512.4 ± 1.2 | 1522.8 ± 1.2
m1 = 0.1306 | 997.942 ± 0.11 | 997.051 ± 0.11 | 995.892 ± 0.11 | 994.494 ± 0.11 | 992.873 ± 0.11 | 1471.7 ± 1.2 | 1487.3 ± 1.2 | 1501.1 ± 1.2 | 1513 ± 1.2 | 1523.3 ± 1.2
m1 = 0.1749 | 997.562 ± 0.11 | 996.671 ± 0.11 | 995.508 ± 0.11 | 994.111 ± 0.11 | 992.498 ± 0.11 | 1473.4 ± 1.2 | 1488.9 ± 1.2 | 1502.5 ± 1.2 | 1514.2 ± 1.2 | 1524.4 ± 1.2
m1 = 0.2188 | 997.195 ± 0.11 | 996.303 ± 0.11 | 995.144 ± 0.11 | 993.747 ± 0.11 | 992.123 ± 0.11 | 1475 ± 1.2 | 1490.4 ± 1.2 | 1503.8 ± 1.2 | 1515.5 ± 1.2 | 1525.5 ± 1.2

CCCO [propan-1-ol] + O
Conditions | mass density, 288.15 K [kg/m3] | mass density, 293.15 K [kg/m3] | mass density, 298.15 K [kg/m3] | mass density, 303.15 K [kg/m3] | mass density, 308.15 K [kg/m3] | speed of sound, 288.15 K [m/s] | speed of sound, 293.15 K [m/s] | speed of sound, 298.15 K [m/s] | speed of sound, 303.15 K [m/s] | speed of sound, 308.15 K [m/s]
m1 = 0.01666 | 998.928 ± 0.11 | 998.029 ± 0.11 | 996.868 ± 0.11 | 995.468 ± 0.11 | 993.851 ± 0.11 | 1467.6 ± 1.2 | 1483.5 ± 1.2 | 1497.7 ± 1.2 | 1509.9 ± 1.2 | 1520.5 ± 1.2
m1 = 0.03333 | 998.757 ± 0.11 | 997.859 ± 0.11 | 996.698 ± 0.11 | 995.295 ± 0.11 | 993.677 ± 0.11 | 1468.6 ± 1.2 | 1484.5 ± 1.2 | 1498.5 ± 1.2 | 1510.7 ± 1.2 | 1521.3 ± 1.2
m1 = 0.0494 | 998.594 ± 0.11 | 997.697 ± 0.11 | 996.534 ± 0.11 | 995.132 ± 0.11 | 993.506 ± 0.11 | 1469.5 ± 1.2 | 1485.4 ± 1.2 | 1499.3 ± 1.2 | 1511.5 ± 1.2 | 1521.9 ± 1.2
m1 = 0.06674 | 998.419 ± 0.11 | 997.52 ± 0.11 | 996.356 ± 0.11 | 994.954 ± 0.11 | 993.328 ± 0.11 | 1470.6 ± 1.2 | 1486.4 ± 1.2 | 1500.3 ± 1.2 | 1512.3 ± 1.2 | 1522.7 ± 1.2
m1 = 0.08313 | 998.254 ± 0.11 | 997.355 ± 0.11 | 996.19 ± 0.11 | 994.787 ± 0.11 | 993.156 ± 0.11 | 1471.7 ± 1.2 | 1487.3 ± 1.2 | 1501.1 ± 1.2 | 1513.1 ± 1.2 | 1523.3 ± 1.2
m1 = 0.1002 | 998.081 ± 0.11 | 997.18 ± 0.11 | 996.013 ± 0.11 | 994.609 ± 0.11 | 992.983 ± 0.11 | 1472.7 ± 1.2 | 1488.3 ± 1.2 | 1502 ± 1.2 | 1513.8 ± 1.2 | 1524 ± 1.2
m1 = 0.134 | 997.747 ± 0.11 | 996.843 ± 0.11 | 995.676 ± 0.11 | 994.267 ± 0.11 | 992.634 ± 0.11 | 1474.8 ± 1.2 | 1490.1 ± 1.2 | 1503.6 ± 1.2 | 1515.4 ± 1.2 | 1525.4 ± 1.2
m1 = 0.1662 | 997.429 ± 0.11 | 996.526 ± 0.11 | 995.356 ± 0.11 | 993.945 ± 0.11 | 992.305 ± 0.11 | 1476.8 ± 1.2 | 1491.9 ± 1.2 | 1505.3 ± 1.2 | 1516.9 ± 1.2 | 1526.8 ± 1.2
